US20130287807A1, “COMPOUNDS FOR TREATING SYMPTOMS ASSOCIATED WITH PARKINSON'S DISEASE” (priority 2008, published 2013)

Tests used:
[1] = test system: monoclonal antibody MV-002; test: In vitro binding assay (ELISA), BSA-coupled peptides, parental antibody MV-002; design: species or system C57/B16 mice; conditions: Table 1 (MV-002); peptide-BSA on plate, compared to original epitope
Description: Peptides derived from Phage Display as well as variants thereof were coupled to BSA and bound to ELISA plates (1 μM; as indicated in the respective figures) and subsequently incubated with the monoclonal antibody that was used for the screening procedure to analyse binding capacity of identified peptides.
Legend to Table 1: the binding capacity is coded by the following binding code: 1:X describes the dilution factor of the parental AB. Ac- . . . indicates acetylated AA.

p4377 = test: Mimotope vaccination, serum ELISA against p4377; type: in vivo, C57/B16 mice; conditions: peptide-KLH vaccines with alum; FIG. 24
Description: (§1) Inhibiting as well as non-inhibiting peptides were coupled to KLH and injected into mice (wildtype C57/B16 mice; subcutaneous injection into the flank) together with an appropriate adjuvant (aluminium hydroxide). Animals were vaccinated 3-6 times in biweekly intervals and sera were taken biweekly as well. Titers to injected peptides, as well as to an irrelevant peptide were determined with every serum. Furthermore, titers against the recombinant human Aβ protein, and against original peptides were determined respectively. In general sera were analysed by reaction against peptides coupled to Bovine Serum Albumin (BSA) and recombinant full length proteins which were immobilised on ELISA plates. Titers were determined using anti mouse IgG specific antibodies. For detailed results see FIGS. 15, 16 and 17 respectively and FIGS. 23, 24 and 25 respectively.
(§2) Female C57/b16 mice, 5-6 mice per group, were subcutaneously immunized with 30 μg peptide coupled to KLH. Control groups were administered original epitope-KLH conjugates respectively. As adjuvant alum was used (always 1 mg per mouse). […] The in vitro ELISA assay to determine the antibody titer was performed with sera of single mice after each vaccination in a two week interval (see FIGS. 25 and 26 respectively). Titers were calculated as OD max/2 in all figures shown. The wells of the ELISA plate were coated with mimotope-BSA conjugate and an irrelevant peptide-BSA conjugate (negative control). The positive control was performed by reaction of the parental antibody with the respective mimotope-BSA conjugate. The detection was performed with anti-mouse IgG. Additionally, recombinant proteins were immobilised on ELISA plates and sera reacted accordingly. FIGS. 23, 24 and 25 show representative examples for assays used to characterise mimotopes in vivo.

[2] = test system: Aβ/truncated/modified forms; test: In vivo characterisation of mimotopes: detection of Aβ/truncated/modified forms; design: species or system C57/B16 mice; key: +: All peptides listed in table 4 mount specific immune reactions against full length and/or truncated and modified forms of Aβ or fragments thereof; conditions: Table 4, MV-002 derived mimotopes
Description: as §1
as §2, with “15” for “25”, “16” for “26”, “respectively).” for “respectively). Titers were calculated as OD max/2 in all figures shown.”, “15 to 17” for “23, 24 and 25”
as §2

[3] = test system: injected peptide (mimotope-BSA conjugate); test: Mimotope vaccination, serum titer ELISA against injected peptide; type: in vivo, C57/B16 mice; conditions: 30 μg peptide-KLH s.c. with alum, anti-mouse IgG
Description: as §1
as §2, with “15” for “25”, “16” for “26”, “respectively).” for “respectively). Titers were calculated as OD max/2 in all figures shown.”, “15 to 17” for “23, 24 and 25”
as §2

[4] = test system: monoclonal antibody MV-002; test: In vitro inhibition assay (ELISA), MV-002 binding to original epitope; design: species or system C57/B16 mice; conditions: for inhibition of binding of monoclonal antibody in in vitro competition experiments: MV-002 mimotopes; for Inhibition Capacity: Table 2 (MV-002), OD at 5 ug peptide compared to original peptide
Description: Different amounts of peptides (concentrations ranging from 10 μg to 0.08 μg; serial dilutions; for MV-002: concentrations ranging from 5 μg to 0.03 μg; serial dilutions), derived from Phage Display were incubated with the monoclonal antibody that was used for the screening procedure. Peptides diminishing subsequent binding of the antibody to the original epitope coated on ELISA plates were considered as inhibiting in this assay.
Legend to Table 2: the inhibition capacity is coded by the following code: Weak inhibition means more peptide is required to lower AB binding than with the original epitope; strong inhibition means similar peptide amounts are required for mimotope and original epitope for lowering AB binding. Mimotopes are compared to the original peptide as standard. OD at 5 ug peptide used in the assay is used to calculate the competition capacity compared to original peptide.

irrelevant peptide p1454 = test: Mimotope vaccination, serum titer ELISA against irrelevant peptide; type: in vivo, C57/B16 mice; conditions: 30 μg peptide-KLH s.c. with alum
Description: as §1
as §2, with “15” for “25”, “16” for “26”, “respectively).” for “respectively). Titers were calculated as OD max/2 in all figures shown.”, “15 to 17” for “23, 24 and 25”
as §2

Sequence | Binding Capacity [1] | inhibition of binding of monoclonal antibody in in vitro competition experiments [4] | immune response against original epitope p4377 (p4377) | Detection of Aβ/truncated/modified forms [2] | immune response against injected peptide [3] | Inhibition Capacity [4] | immune response against unrelated sequence (p1454) (irrelevant peptide p1454)
HQKMIFAC [p4675] | 3 (strong binding :>320000) | active in in vitro inhibition assays | mounted detectable immune responses | + | elicited immune responses | 2 (strong inhibition (as original epitope; OD of peptide below 2, 3 times of original peptide)) | failed to induce a relevant unspecific immune response
HMRLFFNC [p4670] | 3 (strong binding :>320000) | active in in vitro inhibition assays | mounted detectable immune responses | + | elicited immune responses | 1 (Weaker than original epitope (OD of peptide below 4, 6 times of original peptide)) | failed to induce a relevant unspecific immune response
GEIWFEGC [p4680] | 3 (strong binding :>320000) | active in in vitro inhibition assays | mounted detectable immune responses | + | elicited immune responses | 2 (strong inhibition (as original epitope; OD of peptide below 2, 3 times of original peptide)) | failed to induce a relevant unspecific immune response

Second part, led by results:

Binding Capacity [1] | inhibition of binding of monoclonal antibody in in vitro competition experiments [4] | Sequence | immune response against original epitope p4377 (p4377) | Detection of Aβ/truncated/modified forms [2] | immune response against injected peptide [3] | Inhibition Capacity [4] | immune response against unrelated sequence (p1454) (irrelevant peptide p1454)
3 (strong binding :>320000) | active in in vitro inhibition assays | GEIYFERC [p4681] | mounted detectable immune responses | + | elicited immune responses | 2 (strong inhibition (as original epitope; OD of peptide below 2, 3 times of original peptide)) | failed to induce a relevant unspecific immune response
1 (weak binding :<40000) | without inhibition capacity | SHTRLYFC [p4403] | mounted detectable immune responses | + | elicited immune responses | – | failed to induce a relevant unspecific immune response
